# Entries after “also recorded” stand apart in the source; their conditions may differ.
# Tests used:
# [1] = 3-point bending test and microCT of femurs of 3AC treated mice; format: in vivo
# Procedure: Mouse femurs were cleaned, wrapped in PBS-soaked gauze and frozen at […]. Femurs were rehydrated in a PBS solution at room temperature for 2 hours before testing. We employed a 3-point-bending test to assay the biomechanical properties of femurs treated with the 3AC inhibitor. Femurs were placed into a testing frame (1250 N Load Cell and a Q Test 1/L, MTS Systems Corp, Eden Prairie, Minn.), pre-loaded with 1 N and then loaded at 1 N/mm until failure. Prior to testing femurs were scanned using microCT to assay the geometric properties.
# [2] = 3AC treatment of adult C57BL6/J mice (DEXA, microCT, serum ELISA); format: in vivo; details: vs vehicle, hydrochloride
# [3] = cited reference 3 of Example 22; cited from earlier work
# [4] = tested on: MIR cell; experiment: MIR cell induction in treated mice; details: in vivo; for concentration inducing a comparable MIR cell increase: mice
# Procedure: [Moto bene: DRV-IV-26=3A5AS].
# The solubility of 3AC was assessed by calculating the distribution coefficient (CLogD). This calculation estimates the CLogD for 3AC at 7.17 indicating the molecule is very lipophilic. Thus, we have begun to develop novel 3AC analogs with increased aqueous solubility. One of these compounds, 3A5AS, has a CLogD of 3.33. Lipinski's rules (a common measure of small molecule pharmacokinetics) recommend a ClogD of <5 for in vivo applications.
# [5] = 3AC treatment of aged C57BL/6 mice, fasting blood glucose and insulin; format: in vivo; details: after 1 month treatment
# Procedure: We noted that mutation of the SHIP1 paralog, SHIP2, also promotes resistance to diet-induced obesity and diabetes^2 We hypothesized then that treatment of adult or aging mice with a pan-SHIP1/2 inhibitor, 3AC^3,4, (SHIPi) might reduce body fat content. This was then tested by pulsatile SHIPi treatment of aged C57BL/6 mice that have begun to accumulate excess body fat and then assessing their body fat content via whole body DEXA imaging. […] This analysis confirmed that small molecule targetting of SHIP1/2 in vivo is a feasible approach to reverse the accumulation of excess body fat and glucose homeostasis during aging.
# [6] = K118/K189 treatment of DIO mice on high fat diet (Example 21); details: for % body fat: DIO mice on 60% fat diet, 10 mg/kg 2x/week, 1 month, vs pre-treatment
# Excerpt: DIO mice are fed a diet that includes both high quantities of fat as well as sugar. […] DIO mice were purchased from Jackson labs at 12 weeks of age. […] After 1 month on the high fat diet we examined % body fat, (FIG. 28) weight, (FIG. 29) and BMD (FIG. 30).
# [7] = biological target: T1, SHIP1 (Homo sapiens, UniProt Q92835); experiment: SHIP1 Malachite Green phosphatase assay; format: biochemical; details: for SHIP1 inhibitory activity (in words): Malachite Green phosphate release assay, compared with 3AC
# T1 sequence (Q92835 1-1189): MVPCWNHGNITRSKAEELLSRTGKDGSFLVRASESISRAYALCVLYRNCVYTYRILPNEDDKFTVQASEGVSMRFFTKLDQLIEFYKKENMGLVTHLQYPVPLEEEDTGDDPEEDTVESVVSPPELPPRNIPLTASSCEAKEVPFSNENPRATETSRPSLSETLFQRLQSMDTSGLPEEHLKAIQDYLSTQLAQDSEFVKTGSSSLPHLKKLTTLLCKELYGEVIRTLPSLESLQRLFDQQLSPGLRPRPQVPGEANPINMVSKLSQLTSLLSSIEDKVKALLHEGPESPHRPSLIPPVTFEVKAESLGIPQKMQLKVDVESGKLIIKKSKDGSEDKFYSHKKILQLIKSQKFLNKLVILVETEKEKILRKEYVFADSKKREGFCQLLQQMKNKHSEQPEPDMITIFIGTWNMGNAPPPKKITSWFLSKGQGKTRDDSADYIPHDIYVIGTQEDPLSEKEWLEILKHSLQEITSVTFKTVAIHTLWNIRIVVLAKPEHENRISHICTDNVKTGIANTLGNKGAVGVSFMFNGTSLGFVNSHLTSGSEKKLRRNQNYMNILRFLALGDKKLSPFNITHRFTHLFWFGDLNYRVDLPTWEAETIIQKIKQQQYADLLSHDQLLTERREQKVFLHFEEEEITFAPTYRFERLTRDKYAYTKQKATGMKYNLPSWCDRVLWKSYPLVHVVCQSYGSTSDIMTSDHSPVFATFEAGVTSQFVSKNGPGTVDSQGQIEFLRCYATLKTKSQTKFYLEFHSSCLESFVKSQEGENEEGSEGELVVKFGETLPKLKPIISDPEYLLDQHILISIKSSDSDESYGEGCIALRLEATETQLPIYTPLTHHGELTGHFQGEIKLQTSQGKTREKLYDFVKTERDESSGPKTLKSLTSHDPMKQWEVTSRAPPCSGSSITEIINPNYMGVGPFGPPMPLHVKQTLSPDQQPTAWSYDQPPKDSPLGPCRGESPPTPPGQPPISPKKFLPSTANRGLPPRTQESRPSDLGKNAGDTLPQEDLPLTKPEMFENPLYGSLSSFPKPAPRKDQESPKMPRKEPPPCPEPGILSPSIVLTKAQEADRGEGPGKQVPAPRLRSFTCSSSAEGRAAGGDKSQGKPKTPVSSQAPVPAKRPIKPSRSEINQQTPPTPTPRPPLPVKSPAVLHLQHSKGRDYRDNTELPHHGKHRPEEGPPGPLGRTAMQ
# Procedure: The standard protocol for measuring SHIP inhibition activity was conducted as described in the materials section of Brooks, R., Fuhler, G. M., Iyer, S., Smith, M. J., Park, M. Y., Paraiso, K. H., Engelman, R. W., and Kerr, W. G., “SHIP1 inhibition increases immunoregulatory capacity and triggers apoptosis of hematopoietic cancer cells,” J Immunol 184:3582-3589 (2010), which is incorporated herein by reference, which protocol is described in pertinent part as follows: Malachite Green Assay was obtained from Echelon Biosciences. Malachite Green forms a colored complex with free phosphate liberated by the SHIP1, SHIP2, or PTEN enzyme reactions. The assay was performed according to manufacturer's protocol. The 3a-aminocholestane (3AC) was dissolved in 100% ethanol and used at a final concentration of 1 mM in the Malachite Green assay.
# [8] = tested on: immunoregulatory cells; experiment: Oral administration of K118 in mice, immunoregulatory cells by flow cytometry
# [9] = Solubility in water / delivery solution; details: 100% H2O; hydrochloride
# [10] = K118 treatment of DIO mice on high caloric diet (Example 22); format: in vivo
# Procedure: ; As before K118 treatment was performed for one month. After K118 or vehicle treatment we examined weight, (FIG. 35A-C) food intake, (FIG. 35D) gross comparison of fat depots, (FIG. 35E) % body fat, (FIG. 35F) BMD and BMC (FIG. 38A,B). […]. (FIG. 35A,B) The vehicle group retained or increased their body mass during the one month study (FIG. 35C). The weight difference between the K118- and vehicle-treated mice was readily apparent upon visual examination of the mice (FIG. 35C). […]. Obesity is a complex metabolic disorder that predisposes individuals to several co-morbidities, such as type 2 diabetes mellitus. DIO mice are a well-studied model to of diet-related obesity and its leading co-morbidity, type 2 diabetes^12,13. […]. We measured fasting and ad libitum blood glucose and insulin levels and performed the intraperitoneal glucose tolerance test (IGTT) on fasted DIO mice. […]. After 1 month we examined fasting and ad libitum blood glucose, (FIG. 36A-B) fasting and ad libitum insulin, (FIG. 36C-D) the fasting and ad libitum insulin:glucose ratio, (FIG. 36E) and IGTT on fasted DIO mice (FIG. 36F). […]. (FIG. 36A-B). […].
# [11] = K118/K189 treatment of 9-12 month old mice (Example 21); details: aged mice, 10 mg/kg i.p. two times per week, 4 weeks, hydrochloride
# Excerpt: After one month we monitored body weight, % body fat and bone mineral density (BMD) in all groups.
# [12] = Pulsatile K118 treatment of aged male and female C57BL/6 mice (Example 22); format: in vivo
# [13] = aging C57BL/6 mice of both sexes, 2x/week, 10 mg/kg, 1 month
smiles,measurement,setting,value
"CC(C)CCC[C@@H](C)[C@H]1CC[C@H]2[C@@H]3CCC4C[C@H](N)CC[C@]4(C)[C@H]3CC[C@]12C.Cl (stereo partly drawn) [3AC, 3α-Aminocholestane hydrochloride]",energy to fracture,[1]; 3-point bend,not observed to be significantly different
same,energy to peak,[1]; 3-point bend,not observed to be significantly different
same,decrease in the peak load,"[1]; femurs of 3AC treated mice, 3-point bend, p<0.01",15.4%
same,decrease in the stiffness,"[1]; femurs of 3AC treated mice, 3-point bend, p<0.04",21.6%
same,cortical thickness in the femurs,[1]; mid-shaft microCT,significant decreases
same,whole-body BMD,"[2]; DEXA, 25 mg/kg i.p. three times per week, 4, 8 and 16 weeks, 25 mg/kg",significantly reduces; also recorded: Significant decrease
same,percent body fat,"[2]; DEXA, aging mice, 25 mg/kg three times per week, 25 mg/kg",significantly reduced; also recorded: Significant decrease
same,serum OPG,[2]; ELISA,significantly increases; also recorded: increased
same,serum RANKL,[2]; ELISA,decreased
same,bone mass (Bv/Tv),"[2]; microCT metaphysis, 25 mg/kg i.p. three times per week, 25 mg/kg",significantly reduces; also recorded: significantly decreased
same,aqueous solubility,[3],poor aqueous solubility
same,concentration inducing a comparable MIR cell increase,[4],60 µM
same,fasting blood glucose,[5],significant decrease
same,insulin,[5],significant decrease
"C[C@@]12CCC[C@H]1[C@@H]1CC[C@H]3C[C@@H](O)CC[C@]3(C)[C@H]1CC2 [K189, 3β-Hydroxy-5α-androstane, reference compound]",% body fat,[6],did not show a significant reduction
same,SHIP1 inhibitory activity (in words),[7],significant SHIP1 inhibitory activity is lost; also recorded: does not have significant SHIP1 inhibitory activity
"C[C@@]12CCC[C@H]1[C@@H]1CC[C@H]3C[C@@H](N)CC[C@]3(C)[C@H]1CC2.Cl [K118, 3βAmino-5α-androstane hydrochloride]",oral bioavailability,"[8]; delivered orally, 10 mg/kg, preliminary studies",bioavailable
same,neutrophil numbers,"[8]; oral 10 mg/kg, hydrochloride, 10 mg/kg",trend for increased; also recorded: Increase
same,"frequency of natural T regulatory cells (nTreg, CD4+CD25+FoxP3+)","[8]; spleen and mesenteric lymph node, oral 10 mg/kg",Significant increases
same,"frequency of myeloid derived suppressor cells (MDSC, Gr1 and Mac1)","[8]; spleen, oral 10 mg/kg",significant increase
same,solubility in water,[9],water-soluble; also recorded: water soluble
same,BMD or BMC,"[10]; C57BL6 mice on a HCD, hydrochloride",did not adversely impact; also recorded: does not affect
same,body weight,"[10]; DIO mice on HCD, 2x/week, 10 mg/kg, one month, vs pre-treatment and vehicle",lost a significant amount of body weight
same,percent body fat,"[10]; DIO mice, vs pre-treatment and vehicle",significantly lower
same,insulin:glucose ratio,"[10]; DIO mice, vs vehicle",significant decrease
same,leptin production,[10]; HCD mice,reduced leptin production
same,total cholesterol levels in the serum,[10]; HCD mice,reduced total cholesterol levels
same,glucose tolerance (IGTT),"[10]; fasted DIO mice, vs vehicle",improved glucose tolerance
same,blood glucose levels,"[10]; fasting and ad libitum, DIO mice, vs pre-treatment and vehicle",significantly reduced
same,serum insulin levels,"[10]; fasting and ad libitum, DIO mice, vs vehicle",significantly lower
same,fat depot storage,"[10]; gross comparison, DIO mice",visibly less fat depot storage
same,BMD,[11],does not significantly reduce
same,body fat,[11],quite effective at reducing; also recorded: reduces
same,body mass (weight),[11],quite effective at reducing; also recorded: reduces
same,morbidity or mortality,[12]; K118 treated mice,no significant morbidity or mortality
same,BMD,"[12]; aged male and female mice, hydrochloride",does not significantly reduce; also recorded: does not affect
same,bone mineral content (BMC),"[12]; aged mice, one month pulsatile treatment, hydrochloride",normal bone density and mineral content; also recorded: does not affect
same,body fat,[12]; [13],quite effective at reducing
same,body mass (weight),[12]; [13],quite effective at reducing
same,inflammation / lesions in lungs and small intestine (ileum),"[12]; histology, one month pulsatile treatment, hydrochloride",lacked any evidence of inflammation; also recorded: no significant lesions
same,% body fat,[6]; hydrochloride,significantly lower; also recorded: reverses diet-induced obesity
same,weight gain,"[6]; DIO mice on high fat diet, 1 month treatment, hydrochloride",did not significantly gain weight; also recorded: prevents diet-induced weight gain
same,body fat in individual mice,"[6]; all K118 treated mice, one month",reduced body fat
same,mice that lost weight,"[6]; individual mice of the K118 group, one month",3 out of 4
same,BMD,"[6]; young mice on a high fat diet, hydrochloride",did not adversely impact; also recorded: does not cause a significant reduction
same,SHIP1 inhibitory activity (in words),[7]; hydrochloride,comparable SHIP1 inhibitory activity; also recorded: significant SHIP1 inhibitory activity
same,inhibition at 1000 µM,"[7]; at 1 mM, tested in triplicate",59%
"C[C@@]12CCC[C@H]1[C@@H]1CC[C@H]3C[C@H](N)CC[C@]3(C)[C@H]1CC2 [3A5AS, 3α-amino-5α-androstane]",concentration inducing a comparable MIR cell increase,[4],15 µM
same,potency at inducing MIR cell numbers,[4]; compared with 3AC,more potent
same,SHIP1 inhibitory activity (in words),[7],equally potent; also recorded: retains equal inhibitory activity
